{"source": "a melting point compilation (Tetko et al.; mined from patent text by program, amines drawn as free bases though some values may be those of a salt)"}
{"units": {"melting point": "°C"}}
{"smiles": "CC(C)CC(=O)Nc1cc(-c2ccnc3c(C(=O)c4cccs4)cnn23)ccc1Cl", "melting point": "172 to 175"}
{"smiles": "N=C(NCC1(c2ccccc2)CC1)NN=Cc1c(Cl)cccc1Cl", "melting point": "136 to 138"}
{"smiles": "Cc1[nH]c2ccccc2c1C(=O)C(=O)N1CCC(Oc2ccc(F)cc2)CC1", "melting point": "213 to 214"}
{"smiles": "Cc1oc(-c2ccccc2)nc1COc1cccc(CCl)c1", "melting point": "79 to 80"}
{"smiles": "COc1cc(C2CCN(C[C@H](O)CO)CC2)ccc1Nc1ncc2ccc(-c3ccccc3OC)n2n1", "melting point": "66 to 80"}
{"smiles": "CCCCCCCCSc1nc2cc(Cl)ccc2[nH]1", "melting point": "66 to 67"}
{"smiles": "COC(=O)C(=Cc1ccc(OC)c(OC)c1)C(C)=O", "melting point": "93 to 95"}
{"smiles": "COc1cc2c(cc1OC)N(C)C(=O)CN=C2c1cccc(CO)c1", "melting point": "143 to 146"}
{"smiles": "CCOC(=O)c1sc(-c2ccc(C#N)cc2)nc1CO", "melting point": "> 250"}
{"smiles": "CCOCc1nc2c(N)nc3ccccc3c2n1Cc1cc(C)no1", "melting point": "178 to 180"}
{"smiles": "Cc1cccc2nc(C(S)c3ncnc4[nH]cnc34)n(-c3ccccc3F)c(=O)c12", "note": "(stereo not drawn)", "melting point": 152}
{"smiles": "O=C(O)CCCNC(=O)c1cccc(NC(=O)c2ccccc2O)c1", "melting point": "172 to 174"}
{"smiles": "COc1ccc(-c2cnn3c(N)c(-c4cccc(Cl)c4)c(C)nc23)cc1OC", "melting point": "223 to 226"}
{"smiles": "Cc1cc2c(cc1N)OC(=O)C2C", "note": "(stereo not drawn)", "melting point": "123 to 124"}
{"smiles": "Fc1ccc(C2=NOC(c3cc(Cl)cc(Cl)c3)(C(F)(F)F)C2)cc1Br", "note": "(stereo not drawn)", "melting point": 132}
{"smiles": "O=C(O)C[C@@H](c1ccccc1)c1c[nH]c2cc(OCCCNc3ccccn3)ccc12", "melting point": 137}
{"smiles": "NC(N)=Nc1nc(-c2cccc(-c3n[nH]c(N)n3)n2)cs1", "melting point": "> 300"}
{"smiles": "O=C(c1ccccc1)N1CCC(CO)CC1", "melting point": "83 to 85"}
{"smiles": "COc1cc(C(C)C)c2c(c1)S(=O)(=O)N(COc1cc(C(F)(F)F)nn1-c1ccccn1)C2=O", "melting point": "132 to 133"}
{"smiles": "CCOC(=O)c1ncc2c(c1CBr)c1ccccc1n2C(C)=O", "melting point": "188 to 189"}
{"smiles": "O=C(c1ccc2c(c1)OC(F)(F)C(=O)N2)N1CCOCC1", "melting point": "214 to 217"}
{"smiles": "CN1CC2CC1CN2c1cncc(Cl)n1", "note": "(stereo not drawn)", "melting point": "125 to 126"}
{"smiles": "C#CCc1c(C)nc2c(OCc3c(C)cccc3NC(=O)C(C)=O)cccn12", "melting point": "158 to 160"}
{"smiles": "N#Cc1cccc2c1N(Cc1ccc(Cl)s1)C(=O)C21COc2cc3c(cc21)OCO3", "note": "(stereo not drawn)", "melting point": "192 to 193"}
{"smiles": "Cc1cc(Br)c([N+](=O)[O-])c(Br)n1", "melting point": "118 to 120"}
{"smiles": "CCCOc1ccc(CCNC(=O)C=Cc2ccc(Cl)cc2Cl)cc1OCCC", "melting point": "132 to 134"}
{"smiles": "CC(=O)Nc1ccc(S(=O)(=O)Nc2cc(C)on2)cc1", "melting point": "220 to 222"}
{"smiles": "CNC(=S)NCC1CC(c2ccc(Cl)cc2)=NO1", "note": "(stereo not drawn)", "melting point": "131 to 133"}
{"smiles": "CCCc1ccc2c(c1)C1(O)C(=O)c3ccccc3C1(O)O2", "note": "(stereo not drawn)", "melting point": "126 to 127"}
{"smiles": "CCN(CC)CCNC(=O)c1cc(Cl)c(N)cc1OC1CCCCC1=O", "note": "(stereo not drawn)", "melting point": "96 to 99"}
{"smiles": "CNc1ncccc1[N+](=O)[O-]", "melting point": "52 to 53"}
{"smiles": "COC(=O)COc1ccccc1C1C(C(=O)OC)=C(C)NC(C)=C1C(=O)OC", "melting point": "153 to 155"}
{"smiles": "O=C(NCC12CC3CC(CC(C3)C1)C2)c1cc(CCCNCCCO)cnc1Cl", "melting point": "105 to 107"}
{"smiles": "CCNc1ccc(-c2ccnc3c(C(=O)c4cccs4)cnn23)cc1", "melting point": "130 to 132"}
{"smiles": "CCC(C)NC(C(=O)NCCCC(c1ccc(F)cc1)c1ccc(F)cc1)C(C)C", "note": "(stereo not drawn)", "melting point": "77 to 81"}
{"smiles": "CC1=C(C)C(=O)N(CCN(C)C)C1=O", "melting point": 9}
{"smiles": "C=CCOc1ccccc1NS(C)(=O)=O", "melting point": 90}
{"smiles": "CN1CCCC(C2=C(C#N)C(c3cccc4nonc34)c3c[nH]nc3N2)C1", "note": "(stereo not drawn)", "melting point": 228}
{"smiles": "CC(SC1COC(c2ccc(C(=O)Nc3ccc(C#N)cc3)cc2F)OC1)C(O)(Cn1cncn1)c1ccc(F)cc1F", "note": "(stereo not drawn)", "melting point": 110}
{"smiles": "CC(=O)OC(C)c1cccc2cc(C(=O)CBr)oc12", "note": "(stereo not drawn)", "melting point": "86 to 88"}
{"smiles": "COC(=O)c1ccc(Cl)c(O)c1", "melting point": "100 to 101"}
{"smiles": "CS(=O)(=O)c1c(F)cc(C2=C(c3ccccc3)C(=O)OC2)cc1F", "melting point": 204}
{"smiles": "CC(C)(C)C(=O)N[C@H]1CC[C@H](CCN2CCN(c3nccc4c3CCO4)CC2)CC1", "melting point": 185}
{"smiles": "CNC(=O)c1c(C)nc(C)n1Cc1ccc2oc(-c3ccccc3NS(=O)(=O)C(F)(F)F)c(Br)c2c1", "melting point": "208 to 210"}
{"smiles": "N#Cc1cc(Sc2ccc3ccccc3c2)ccc1[N+](=O)[O-]", "melting point": "139 to 140"}
{"smiles": "O=C(Nc1ccc(N2CCN(C(C(=O)NCC(F)(F)F)c3ccccc3)CC2)cc1)c1ccccc1-c1ccc(C(F)(F)F)cc1", "note": "(stereo not drawn)", "melting point": 208}
{"smiles": "CP(=O)(CCC(=O)O)CCC(=O)O", "melting point": "172 to 174"}
{"smiles": "COCCOc1ccc(/C=C/C(=O)NS(=O)(=O)c2ccccc2)c(Oc2ncc(C(F)(F)F)cc2Cl)c1", "melting point": 136}
{"smiles": "COc1cccc(CCN2C(=O)c3ccccc3C2(O)c2ccncc2)c1", "note": "(stereo not drawn)", "melting point": 190}
{"smiles": "CCCN(CCC)C(=O)C(=NNc1ccccc1)C(C)=O", "melting point": "79 to 80"}
{"smiles": "CC(=O)c1ccc(C(C)Oc2cncc(C(=O)Nc3ccc(C#N)cc3)c2)cc1", "note": "(stereo not drawn)", "melting point": "181 to 183"}
{"smiles": "O=c1ccn([C@@H]2C[C@H](O)[C@@H](O)[C@H]2O)c(=O)[nH]1", "note": "(racemic)", "melting point": "229 to 230"}
{"smiles": "COc1cc(C=CC(=O)Nc2cnc3c(C)cc(C)cc3c2-c2ccccc2Cl)ccc1OC(C)=O", "melting point": "174 to 175"}
